Tests used:
HT29 = experiment: MTT cytotoxicity, HT29; format: cell-based, human; conditions: 48 h incubation, read-out: Cytotoxic effect, IC50
Protocol: (§1) Cytotoxicity was evaluated against fifteen adherent human cancer cell lines using the MTT test: colorectal adenocarcinoma cells Caco2 (ATCC® HTB-37™), colorectal adenocarcinoma cells HT29 (ATCC® HTB-38™), colon colorectal carcinoma HCT116 (ATCC® CCL-247™), colon adenocarcinoma COLO205 (ATCC® CCL-222™), colorectal adenocarcinoma SW620 (ATCC® CCL-227™), colorectal adenocarcinoma grade IV LoVo (ATCC® CCL-229™), hepatocellular carcinoma Hep 3b (ATCC® HB-8064™), endometrium adenocarcinoma HEC1A (ATCC® HTB-112™), Ishikawa (99040201; Sigma–Aldrich Sigma, St. Louis, MO, USA), cervical adenocarcinoma cells HeLa (ATCC® CCL-2™), lung epithelial carcinoma A549 (ATCC® CRM-CCL-185™), breast epithelial adenocarcinoma cell positive for estrogen and progesterone receptors MCF7 (ATCC® HTB-22™) and negative for expression of estrogen receptor HCC38 (ATCC® CRL-2314™), acute promyelocytic leukemia HL-60 (ATCC® CCL-240™), skin melanoma WM115 (ATCC® CRL-1676™), and 1 suspension cancer cell line: acute lymphoblastic leukemia NALM6 (purchased from the German Collection of Microorganisms and Cell Cultures). HT29, NALM6, HCC-38 and HL-60 cells were cultured in RPMI 1640 medium (Thermo Fisher Scientific, Waltham, MA, USA) supplemented with 10% fetal bovine serum and antibiotic (gentamicin 25 μg ml^−1) (Gibco, Grand Island, New York, NY, USA). For the remaining tumor cell lines, Dulbecco’s minimal essential medium (DMEM, Lonza, Visp, Switzerland) supplemented with 10% fetal bovine serum and antibiotic instead of RPMI 1640 was used. In addition, Human Microvascular Endothelial Cells (HMEC1), which were obtained from the American Type Culture Collection (Manassas, VA, USA), were used as a model of normal cells. HMEC-1 were cultured in MCDB131 medium (Corning Life Sciences, Corning, NY, USA), supplemented with 10% fetal bovine serum, 10 ng/mL Epidermal Growth Factor (Millipore, Burlington, MA, USA) and 10 mM glutamine (Corning Life Sciences). All cells were grown at 37 °C in humidified atmosphere of 5% CO2 in air. The exponential growth of cells was maintained by regular passaging at 90% confluence three times a week using 0.025% trypsin/EDTA (Gibco, Grand Island, New York, NY, USA).
(§2) The cytotoxicity was tested by a standard MTT [3-(4,5-dimethylthiazol-2-yl)-2,5-diphenyltetrazolium bromide] (Sigma, St. Louis, MO, USA) microplate cell viability assay. The anticancer activity of the investigated compounds was evaluated in vitro on the basis of their ability to inhibit the proliferation of various cancer cells. Exponentially growing cells were seeded a day before the experiment into a 96-well microplate (Nunc, Roskilde, Denmark) at a density up to 6–8 × 10^3 cells/mL (depending on the cell line) and exposed to the test compounds at a wide range of concentrations for 48 h. Subsequently, various concentrations of the studied compounds (10^−7–10^−5 M) freshly prepared in DMSO (final concentration of <0.1% DMSO) and diluted with complete culture medium were added. After 48 h incubation, the cells were immediately subjected to a cell viability assay. At this time point, the number of viable cells in each well was estimated by the MTT test. Briefly, 50 µL (5 mg/mL final concentration) of MTT was added to each microplate well. This procedure was then followed by a three- to four-hour incubation at 37 °C. After incubation, MTT solution was replaced with 100 µL DMSO/well, which solubilized the formazan crystals formed by the dehydrogenases of metabolically active cells. Purple formazan absorbance was measured spectrophotometrically at 570 nm.

Colo205 = experiment: MTT cytotoxicity, Colo205; format: cell-based, human; conditions: 48 h incubation, read-out: Cytotoxic effect, IC50
Protocol: as §1, §2

SW620 = experiment: MTT cytotoxicity, SW620; format: cell-based, human; conditions: 48 h incubation, read-out: Cytotoxic effect, IC50
Protocol: as §1, §2

LoVo = experiment: MTT cytotoxicity, LoVo; format: cell-based, human; conditions: 48 h incubation, read-out: Cytotoxic effect, IC50
Protocol: as §1, §2

Caco2 = experiment: MTT cytotoxicity, Caco2; format: cell-based, human; conditions: 48 h incubation, read-out: Cytotoxic effect, IC50
Protocol: as §1, §2

Hep 3b = experiment: MTT cytotoxicity, Hep 3b; format: cell-based, human; conditions: 48 h incubation, read-out: Cytotoxic effect, IC50
Protocol: as §1, §2

HEC1A [1] = experiment: MTT cytotoxicity, HEC1A; format: cell-based, human; conditions: 48 h incubation, read-out: Cytotoxic effect, IC50
Protocol: as §1, §2

Ishikawa = experiment: MTT cytotoxicity, Ishikawa; format: cell-based, human; conditions: 48 h incubation, read-out: Cytotoxic effect, IC50
Protocol: as §1, §2

Hela = experiment: MTT cytotoxicity, Hela; format: cell-based, human; conditions: 48 h incubation, read-out: Cytotoxic effect, IC50
Protocol: as §1, §2

A549 = experiment: MTT cytotoxicity, A549; format: cell-based, human; conditions: 48 h incubation, read-out: Cytotoxic effect, IC50
Protocol: as §1, §2

HCC38 = experiment: MTT cytotoxicity, HCC38; format: cell-based, human; conditions: 48 h incubation, read-out: Cytotoxic effect, IC50
Protocol: as §1, §2

MCF7 = experiment: MTT cytotoxicity, MCF7; format: cell-based, human; conditions: 48 h incubation, read-out: Cytotoxic effect, IC50
Protocol: as §1, §2

WM115 = experiment: MTT cytotoxicity, WM115; format: cell-based, human; conditions: 48 h incubation, read-out: Cytotoxic effect, IC50
Protocol: as §1, §2

NALM6 = experiment: MTT cytotoxicity, NALM6; format: cell-based, human; conditions: 48 h incubation, read-out: Cytotoxic effect, IC50
Protocol: as §1, §2

HL60 = experiment: MTT cytotoxicity, HL60; format: cell-based, human; conditions: 48 h incubation, read-out: Cytotoxic effect, IC50
Protocol: as §1, §2

[2] = system: human microvascular endothelial cell line HMEC1; experiment: MTT cytotoxicity, normal endothelial cells HMEC1; format: cell-based; conditions: for IC50: HMEC1 normal endothelial cells, 48 h incubation, read-out: Cytotoxic effect, IC50; for IC50 for HMEC-1 higher than for cancer cells (selectivity): HMEC-1 vs cancer cells
Protocol: as §1, §2

human cancer cell lines = experiment: MTT cytotoxicity, summary statements over the cancer cell line panel; format: cell-based; conditions: read-out: IC50 for seven (2c) and six (3c) cancer cell lines
Protocol: (§3) Cytotoxicity was evaluated against fifteen adherent human cancer cell lines using the MTT test: colorectal adenocarcinoma cells Caco2 (ATCC® HTB-37™), colorectal adenocarcinoma cells HT29 (ATCC® HTB-38™), colon colorectal carcinoma HCT116 (ATCC® CCL-247™), colon adenocarcinoma COLO205 (ATCC® CCL-222™), colorectal adenocarcinoma SW620 (ATCC® CCL-227™), colorectal adenocarcinoma grade IV LoVo (ATCC® CCL-229™), hepatocellular carcinoma Hep 3b (ATCC® HB-8064™), endometrium adenocarcinoma HEC1A (ATCC® HTB-112™), Ishikawa (99040201; Sigma–Aldrich Sigma, St. Louis, MO, USA), cervical adenocarcinoma cells HeLa (ATCC® CCL-2™), lung epithelial carcinoma A549 (ATCC® CRM-CCL-185™), breast epithelial adenocarcinoma cell positive for estrogen and progesterone receptors MCF7 (ATCC® HTB-22™) and negative for expression of estrogen receptor HCC38 (ATCC® CRL-2314™), acute promyelocytic leukemia HL-60 (ATCC® CCL-240™), skin melanoma WM115 (ATCC® CRL-1676™), and 1 suspension cancer cell line: acute lymphoblastic leukemia NALM6 (purchased from the German Collection of Microorganisms and Cell Cultures). […]
(§4) The cytotoxicity was tested by a standard MTT [3-(4,5-dimethylthiazol-2-yl)-2,5-diphenyltetrazolium bromide] […] The anticancer activity of the investigated compounds was evaluated in vitro on the basis of their ability to inhibit the proliferation of various cancer cells. […]

Lipophilicity by RP-TLC = format: physicochemical; parameters: key: RM = log(1/Rf − 1), Rf = a/b; conditions: eluent AcCN: H2O at 30–70% v/v, 22 °C
Protocol: All the experimental solutions of standard substances (0.1 mg/mL) were prepared by dissolving ligands (1a–1d) or ruthenium complexes (2a/3a–2d/3d) in ethanol. Commercially-available octadecyl-modified silica aluminum sheets (20 × 20 cm) were cut into 5 × 10 cm plates. The plates were manually spotted with 1.0 μL of freshly prepared solutions using automatic pipets, 5 mm from each edge. The chromatograms for all compounds (1a/2a/3a–1d/2d/3d) were developed using a horizontal developing chamber and the solvent migration distance was about 4.5 cm. The plates were visually inspected under UV light at 254 nm. Each zone was clearly marked and its distance was manually measured. The RP-TLC analyses of lipophilicity were performed at ambient temperature (22 °C). In this experiment, all measurements were performed in triplicate and the obtained results were used in further calculations. The acetonitrile and water mixtures for ligands 1a–1d and arene–ruthenium(II) complexes 2a/3a–2d/3d were used as mobile phases, with […] content increasing in the range of 30–70% v/v, at 5% intervals. Values of the chromatographic retention coefficient Rf (as shown Formula (1)) and RM (as shown Formula (2)), based on received chromatograms, were calculated and converted as follows:(1) Rf=a/b (2) RM=log1/Rf−1

HEC1A [3] = experiment: Mitochondrial potential, JC-1 probe, HEC1A; format: cell-based, human; conditions: IC50 concentration
Protocol: Cells (10 × 10^3/well) were seeded in black 96-well plates and grown for 24 h to reach the log phase. […] After removing the medium, the cell monolayer was washed twice with PBS solution and 50 μL of the JC-1 probe at a final concentration of 5 μM was added to the wells of the plate. The cells were incubated with the dye for 30 min in a CO2 incubator. Subsequently, the changes in the fluorescence of monomers (λex = 485 nm and λem = 525 nm) and aggregates (λex = 530 nm and λem = 590 nm) using JC-1 were monitored. The results of the tested trials were presented as the ratio of fluorescence of aggregates and JC1 monomers as a percentage of control values, which was assumed to be 100%.

HCT116 = experiment: MTT cytotoxicity, HCT116; format: cell-based, human; conditions: 48 h incubation, read-out: Cytotoxic effect, IC50
Protocol: as §3, §4

| Lipophilicity, RM (Lipophilicity by RP-TLC) | Compound | IC50 (HT29) [µM] | IC50 (Colo205) [µM] | IC50 (SW620) [µM] | IC50 (LoVo) [µM] | IC50 (Caco2) [µM] | IC50 (Hep 3b) [µM] | IC50 (HEC1A [1]) [µM] | IC50 (Ishikawa) [µM] | IC50 (Hela) [µM] | IC50 (A549) [µM] | IC50 (HCC38) [µM] | IC50 (MCF7) [µM] | IC50 (WM115) [µM] | IC50 (NALM6) [µM] | IC50 (HL60) [µM] | IC50 [2] [µM] | IC50 for HMEC-1 higher than for cancer cells (selectivity) [2] | further results |
| --- | --- | --- | --- | --- | --- | --- | --- | --- | --- | --- | --- | --- | --- | --- | --- | --- | --- | --- | --- |
| 2.27 | Cc1ccc(C(C)C)cc1.NC(=S)n1nc(-c2ccccc2)cc1O.[Cl-].[Cl][Ru+] [2c] | 29.5 ± 2.1 | 32.6 ± 3.3 | 49.4 ± 1.2 | 42.6 ± 3.2 | > 200 | 104 ± 4.4 | 24.5 ± 0.9 | 142 ± 7.4 | 124 ± 7.2 | > 200 | > 200 | 83.4 ± 7.3 | 26.7 ± 3.3 | 11.7 ± 1.6 | 86.5 ± 8 | 192 ± 6.5 | 3–5 times | IC50 (human cancer cell lines): < 50 µM; decrease in mitochondrial potential (JC-1) (HEC1A [3]): ~50% |
| 2.40 | Cc1cc(C)n(C(N)=S)n1.Cc1ccc(C(C)C)cc1.[Cl-].[Cl][Ru+] [2a] | 111 ± 4.9 | 110 ± 6.7 | 118 ± 6.1 | > 200 | > 200 | > 200 | 62.3 ± 0.9 | 90.7 ± 3.7 | > 200 | 121 ± 3.6 | 84.4 ± 1.1 | > 200 | 60.2 ± 6.3 | 51.6 ± 5.7 | 88.9 ± 6.1 | 156 ± 4.9 | 3–5 times |  |
|  | Cl.[Cl-].[Cl-].[Cl-].[Ru+3].c1c[nH]cn1.c1c[nH]cn1 [NAMI-A, reference compound] | > 200 | > 200 | > 200 |  |  | > 200 | > 200 | > 200 |  |  |  | 14.1 ± 1.5 | > 200 | > 200 |  |  |  | IC50 (HCT116): > 200 µM |
